Consider five molecules from US12466839B2, “Allosteric AKT inhibitors for use in the treatment of Hereditary Hemorrhagic Telangiectasia” (VADERIS THERAPEUTICS AG, priority 2020, dated 2025).

The target in data set [1] is AKT2 (Homo sapiens, UniProt P31751). In words: Co-crystal structure in complex with AKT2. Conditions: 2.32 Å co-crystal structure with AKT2. It is filed as binding.
Data set [2] in a line: Pup lethality / adverse effects in Eng-iKO mice. The format is in vivo. The protocol: The Eng Flox/flox; cdh5-CreERT2 were injected with tamoxifen (50 μg) at P2 to induce nearly […] The same volume of vehicle was injected serving as control animals. Mice were then euthanized at P7 and retinas processed for immunofluorescence staining as described (Lebrin et al., as above).
(§1) The same volume of vehicle was injected serving as control animals. Mice were then euthanized at P7 and retinas processed for immunofluorescence staining as described (Lebrin et al., as above).

In data set [3] the test system is angiogenesis in C57Bl/6J mice retinas. In words: Neonatal retinal angiogenesis model in wild-type mice. The format is in vivo, mouse (C57Bl/6J). Conditions: for anti-angiogenic properties (overall conclusion): mouse retinas. From the text:
(§2) For the retinal vascular network, quantification of the number of AV shunts per mouse was done manually. […] A custom own-lab made macro allowed automatic processing of the images, using the same processing and quantification parameters. Briefly, the brightness of the images was enhanced by modifying the pixel extreme values, which depends on the specific image histogram content. A Gaussian filter was applied to reduce the intensity in homogeneities. The filter order depended on the image resolution. Next, the threshold step was computed, based on a global threshold technique such as Otsu's method or Li's method, resulting in binary image. A median filter was then applied to eliminate potential local irregularities, which could cause false branching point detection. From the binary images, the vascular density was quantified (calculated as the ratio of pixels associated with the vessels divided by the total number of pixels in the image). For the other parameters, a skeleton of the images was first computed using ImageJ, then the total vascular length was quantified using the Measure Skeleton Length plug-in from ImageJ. The number of branch points was extracted from the Analyze Skeleton plug-in of ImageJ. All results were transferred to Microsoft Office Excel software and automatically rearranged using a lab custom-made program. As all images generated at each step of the processing were saved, a visual control was made to ensure that there were no aberrant results.
(§3) Statistical analysis was performed with Prism 7 software (GraphPad). For most of the experiments, 1-way ANOVA was used for multiple comparisons. Results are expressed as mean±SEM. For post hoc pairwise, the Dunnett's test was used. A value of *P<0.05, **P<0.01, ***P<0.001 or ****P<0.0001 denotes statistical significance. An in-group variation of around 15% in parameters related to blood vessel architecture changes has been previously observed by the inventors, therefore a difference between controls and mutant mice of around 20-30% was anticipated. It was therefore expected that a group of 8 mice per condition would reveal statistical differences.
(§4) Eyes were fixed in 4% paraformaldehyde (PFA) in PBS at room temperature for 10 min, retinas were dissected, post-fixed in 4% PFA in PBS at 4° C. overnight then processed for immunostaining. Retinas were permeabilized in PBS, 1% BSA and 0.5% Triton X-100 at 4° C. overnight, rinsed in PBS, washed twice in PBlec (PBS, pH 6.8, 1% Triton-X-100, 0.1 mM CaCl2, 0.1 mM MgCl2, 0.1 mM MnCl2), and then incubated in biotinylated Griffonia simplicifolia lectin (isolectin B4) (B-1205, Vector Laboratories, 1:50) in PBlec at 4° C. overnight. After 5 washes in PBS, samples were incubated with streptavidin Cy-3 (PA43001, Sigma-Aldrich, 1:100) and with a-SMA (clone 1A4) (F3777, Sigma-Aldrich) conjugated with FITC diluted in PBS, 0.5% BSA, and 0.25% X-100 at 4° C. for 2 h. After washing, flat whole-mount retinas were mounted in DAKO medium (S3023, Dako). Complete high-resolution 3-dimensional rendering of whole-mount retinas was acquired using Laser Scanning Microscope SP5 or SP8 (Leica).

In data set [4] the test system is AKT kinase in Pi3Kα or PTEN mutant cells lines (e.g. MCF7, BT474 or LnCAP). Conditions: similar cell line; cited from earlier work.
The nature of data set [5]: Safety/toxicity profile in wild-type neonatal mice. The text has this: C57Bl/6J pregnant females were provided by Janvier Labs. EngFlox/flox mice (Mahmoud et al., (2010), “Pathogenesis of arteriovenous malformations in the absence of endoglin”, Circulation Research. https://doi.org/10.1161/[…].109.211037) were crossed with Cdh5(PAC)-CreERT2 (12) to generate endothelial specific inducible Eng knockout. Animal housing and procedures were in accordance with the Dutch Government guidelines and directive 2010/63/EU of the European Parliament. All efforts were made to minimize the number of animals used and their suffering. The institutional Committee for Animal Welfare of Leiden University Medical Center (project number AVD1160020171628) approved all protocols. Male and female mice were used during the first postnatal week to study retinal angiogenesis.
Retinas were processed for immunofluorescence staining as described (Lebrin et al., (2010), “Thalidomide stimulates vessel maturation and reduces epistaxis in individuals with hereditary hemorrhagic telangiectasia”, Nature Medicine. https://doi.org/10.1038/nm.2131).

For data set [6], the system named is AVM formation in Eng-iKO mice. The data set can be described thus: Prevention of AVM formation in Eng-iKO mice (retinal vascular network). The format is in vivo, mouse. The protocol: The Eng Flox/flox; cdh5-CreERT2 were injected with tamoxifen (50 μg) at P2 to […] once at P3, P4, P5 and P6. The same volume of vehicle was injected serving as control animals. Mice were then euthanized at P7 and retinas processed for immunofluorescence staining as described (Lebrin et al., as above).
as §1, §2, §3, §4

Data set [7] has as its system nosebleeds in HHT patients. Conditions: HHT patients (Lebrin et al.); cited from earlier work.
Data set [8] in a line: Pharmacokinetics (PK) profile in neonate mice. It is filed as in vivo, mouse. As for the experimental part:
Terminal blood samples collected at 24 h and 48 h post injections were collected from each mouse under isoflurane anaesthesia for the preparation of plasma. 4 neonate mice were used per time point in the study. Blood was collected into EDTA coated microvettes (Sartsed) for plasma preparation. Blood was centrifuged at 2700×g for 10 minutes and approximately 30 to 40 μl plasma was removed and aliquoted into polypropylene tubes (two aliquots per animal). Plasma samples were stored at −80° C. until bioanalysis. VAD044 compound levels in plasma samples was determined by LC-MS/MS.

The mark [9] stands for this setting: once at P4, 5 to 25 mg·kg-1, i.p.

“Also recorded” adds a separate entry of the source.

AKT2, sequence (P31751 whole entry): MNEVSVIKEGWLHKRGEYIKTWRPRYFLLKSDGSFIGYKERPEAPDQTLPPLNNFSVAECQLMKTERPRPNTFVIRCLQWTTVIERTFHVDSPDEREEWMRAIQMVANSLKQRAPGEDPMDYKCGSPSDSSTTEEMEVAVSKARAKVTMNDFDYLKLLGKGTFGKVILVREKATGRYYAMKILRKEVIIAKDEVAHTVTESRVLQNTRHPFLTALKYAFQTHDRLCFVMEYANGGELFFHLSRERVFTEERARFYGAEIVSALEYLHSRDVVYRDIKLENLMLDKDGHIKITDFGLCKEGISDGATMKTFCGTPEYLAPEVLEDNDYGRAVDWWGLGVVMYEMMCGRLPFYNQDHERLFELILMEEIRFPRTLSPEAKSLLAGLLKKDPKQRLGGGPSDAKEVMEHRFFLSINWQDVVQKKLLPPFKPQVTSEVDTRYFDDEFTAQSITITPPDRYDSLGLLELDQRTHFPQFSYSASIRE

As for `CCCN1C(=O)COc2nc(-c3ccc([C@]4(N)C[C@](C)(O)C4)cc3)c(-c3ccccc3)cc21` [Compound 6], in data set [1], the “binding site in co-crystal structure” value is “binds in an allosteric binding pocket”.
For `CCCCCCCCCCCCCCCCCCOP(=O)([O-])OC1CC[N+](C)(C)CC1` [Perifosine], the pup death result in data set [2] (daily intraperitoneal administration at 25 mg·kg-1) is reported as “resulted in pup death”. Moreover, the “anti-angiogenic properties (overall conclusion)” value in data set [3] is recorded as “weak anti-angiogenic properties”. The vascular radial expansion entry in data set [3] (once at P4, 100 mg·kg-1) was “reduced vascular radial expansion”. Further, the effect on angiogenesis entry in data set [3] (once at P4, 5 to 10 mg·kg-1) is listed as “did not affect angiogenesis”. For the same molecule, the “number of branch points and vascular area of the retinal vascular bed” value in data set [3] (once at P4, 25 to 100 mg·kg-1) is on record as “slight reduction”. In data set [4], the “cellular inhibitory activity on AKT” value is on record as “uM range”. Besides, the weight gain result in data set [5] (injected once at P4, 50 mg·kg-1) is “delayed weight gain”. Further, the pup mortality entry in data set [5] (injected once at P4, 100 mg·kg-1) is recorded as “induced important pup mortality”. Besides, the adverse effects entry in data set [5] (injected once at P4, 5 to 25 mg·kg-1) is listed as “No adverse effects”. Besides, the “prevention of AVM formation” value in data set [6] (Eng-iKO mice, 25 or 50 mg·kg-1 i.p at P3 and P5, or 10 mg·kg-1 daily P3 to P6) is recorded as “unable to prevent AVM formation”. For the same molecule, the “inhibition of angiogenesis in Eng-iKO mice” value in data set [6] (Eng-iKO mice, doses and injection schemes tested) is “did not inhibit angiogenesis”. Moreover, the “effects in shunt formation” value in data set [6] (HHT1 mouse model, 25 and 50 mg·kg-1) was “no significant effects”. For the same molecule, in data set [6] (injected every day at 10 mg·kg-1), the “efficacy on shunt formation” value was “trend for efficacy was observed but statistical significance was not achieved”.
For the molecule `O=C1CCC(N2C(=O)c3ccccc3C2=O)C(=O)N1` (centres unmarked) [Thalidomide], in data set [7], the “severity and frequency of nosebleeds” value is “reduce the severity and frequency of nosebleeds”.
As for `Cn1ncc(Cl)c1-c1cc(C(=O)N[C@H](CN)Cc2ccc(F)c(F)c2)oc1Cl` [Uprosertib], the pups mortality entry in data set [2] (5 mg·kg−1 injected twice at P3 and P6) is on record as “high levels of pups mortality”. Further, the pup death entry in data set [2] (Eng-iKO mice, 1 to 5 mg·kg−1 bodyweight) is “death of the majority of the pups”. The pup death result in data set [2] (Eng-iKO mice, two injections at P3 and P5) is on record as “death of the majority of the pups”. Further, in data set [3], the “anti-angiogenic properties (overall conclusion)” value was “potent inhibitor of angiogenesis; also recorded: potent antiangiogenic properties”. Besides, in data set [3] (setting [9]), the “number of branch points” value is “marked decrease”, the radial expansion result is “slight decrease” and the vascular area result is “marked decrease”.
For the molecule `CCN1C(=O)COc2nc(-c3ccc([C@]4(N)C[C@@H](O)C4)cc3)c(-c3ccccc3)cc21` [VAD044 free base, 6-(4-(1-amino-3-hydroxycyclobutyl)phenyl)-1-ethyl-7-phenyl-1H-pyrido[2,3-b][1,4]oxazin-2(3H)-one], the Cavg (effective concentration) in data set [8] turned out to be 22.9 ng/mL.
